In US20180085386A1, “URIDINE MONOPHOSPHATE AND TRIPHOSPHATE DERIVATIVES, COMPOSITIONS AND METHODS OF USE” (Tufts University, priority 2016, published 2018):

Test system: circulating cytokines in plasma of PSAPP mice
Assay: Circulating cytokine levels in plasma of PSAPP mice (multiplex)
Type: in vivo, mouse
Details: vs vehicle
Protocol: As part of the study described in Example 16, the levels of numerous cytokines in plasma of mice treated with vehicle or compound 5 were also evaluated. As described in Example 16, treatment was initiated when the mice were approximately 3 months old. PSAPP mice were treated for 100 days with daily injections of 10 μg/kg of compound 5 or vehicle. Following treatment and the fear conditioning task experiment, plasma was taken for multiplex cytokine analysis of circulating cytokine levels in vehicle-treated versus compound-treated PSAPP mice. Cytokine levels are assayed using a multi-plex system where beads are labelled with capture antibody specific for each analyte tested. Each bead set is coupled to a specific capture antibody and is distinguishable from beads coupled to a different capture antibody. Thus, the levels of each analyte can be evaluated and distinguished. […] In FIGS. 10-13, compound 5 is indicated along the x-axis as “compound”.
In this study, treatment of PSAPP mice commenced when the mice were pre-symptomatic. Specifically, treatment was initiated when the mice were approximately 3 months old. PSAPP mice were treated for 100 days with daily, intraperitoneal injections of 10 μg/kg of compound 5 or vehicle. Following treatment, mice were assessed for the following: concentration of circulating pro-inflammatory cytokines; amyloid beta load (e.g., plaque burden); and memory in a fear conditioning task for memory formation. The data provided in Example 18 is for 18 vehicle treated mice and 20 compound treated mice. The data provided for the vehicle-treated group is the average across those mice, and error bars depict the standard error (SEM). Similarly, the data provided for the compound-treated group is the average across those mice, and the error bars depict the SEM. Mice were first evaluated in the fear conditioning task experiment. Subsequently, plasma was taken for multiplex cytokine analysis of circulating levels of cytokine in the plasma. Finally, plaque burden was assessed in the cortex and hippocampus of the mice.
In this study, treatment of PSAPP mice commenced after the mice were already symptomatic. Specifically, treatment was initiated when the mice were approximately 6 months old. PSAPP mice were treated for 7 days with daily, intraperitoneal injections of 10 μg/kg of compound 5 or vehicle. Following treatment, mice were assessed for the following: concentration of circulating pro-inflammatory cytokines; amyloid beta load (e.g., plaque burden); and plaque size. The data provided in Example 19 is for 7 vehicle treated mice and 7 compound treated mice. The data provided for the vehicle-treated group is the average across those mice, and error bars depict the standard error (SEM). Similarly, the data provided for the compound-treated group is the average across those mice, and the error bars depict the SEM. Plasma was taken for multiplex cytokine analysis of circulating levels of cytokine in the plasma. Subsequently, plaque burden was assessed in the cortex (using Aβ40) and hippocampus (using Aβ42) of the mice, and plaque size was also assessed.

[1] = 10 μg/kg daily for 100 days, Example 18
[2] = 10 μg/kg daily for 100 days, Example 18, FIG. 10
[3] = 10 μg/kg i.p. daily for 7 days from ~6 months (symptomatic), Example 20, FIG. 16
[4] = 10 μg/kg i.p. daily for 100 days from ~3 months, Example 19, FIG. 14

For O=c1ccn([C@@H]2O[C@H](CO)C(O)C2O)c(=O)n1Cc1noc2ccccc12 (stereo in doubt) [compound 5], the “average plasma level of IFN-r” value [1] was “reduced”, the “average plasma level of IL-1β” value [1] was “reduced” and the “average plasma level of IL-2” value [1] was “reduced”. The “average plasma level of IL-3” value [1] was “reduced”, the “average plasma level of IL-5” value [1] was “reduced” and the “average plasma level of IL-6” value [1] was “reduced”. For the same molecule, the “average plasma level of IL-7” value [1] was “reduced”, the “average plasma level of IL-9” value [1] was “reduced” and the “average plasma level of IL-13” value [1] was “reduced”. For the same molecule, the “average plasma level of IL-17” value [1] was “reduced”, the “average plasma level of LIF” value [1] was “reduced” and the “average plasma level of MIP-1α” value [1] was “reduced”. For the same molecule, the “average plasma level of MIP-1β” value [1] was “reduced”, the “plasma level of Eotaxin” value [1] was “no or substantially no change” and the “plasma level of G-CSF” value [1] was “no or substantially no change”. For the same molecule, the “plasma level of GM-CSF” value [1] was “no or substantially no change”, the “plasma level of IL-1α” value [1] was “no or substantially no change” and the “plasma level of IP-10” value [1] was “no or substantially no change”. For the same molecule, the “plasma level of LIX” value [1] was “no or substantially no change”, the “plasma level of M-CSF” value [1] was “no or substantially no change” and the “plasma level of MCP-1” value [1] was “no or substantially no change”. For the same molecule, the “plasma level of MIP-2” value [1] was “no or substantially no change”, the “plasma level of IL-4” value [2] was “statistically significant reduction” and the “plasma level of IL-10” value [2] was “statistically significant reduction”. The “plasma level of IL-12 (IL-12(p70))” value [2] was “statistically significant reduction”, the “plasma level of IL-12(p40) (p40 subunit alone)” value [2] was “does not reflect a change” and the “plasma level of IL-10” value [3] was “statistically significant reduction”. For the same molecule, the “plasma level of IL-12 (IL-12(p70))” value [3] was “statistically significant reduction”, the “plasma level of IL-13” value [3] was “statistically significant reduction” and the “plasma level of IL-17” value [3] was “statistically significant reduction”. The “plasma level of MIP-1a” value [3] was “statistically significant reduction”, the “plasma level of MIP-1b” value [3] was “statistically significant reduction” and the “plasma level of TNFα” value [3] was “statistically significant reduction”. The “plasma level of IL-2” value [4] was “statistically significant reduction”, the “plasma level of IL-4” value [4] was “statistically significant reduction” and the “plasma level of IL-10” value [4] was “statistically significant reduction”. For the same molecule, the “plasma level of IL-12 (IL-12(p70))” value [4] was “statistically significant reduction”, the “plasma level of IL-13” value [4] was “statistically significant reduction” and the “plasma level of IL-17” value [4] was “statistically significant reduction”. For the same molecule, the “plasma level of MIP-1a” value [4] was “statistically significant reduction” and the “plasma level of MIP-1b” value [4] was “statistically significant reduction”.
